Assay results reported in patent publication US20250057832A1, “USE OF A CLASS OF 1,4-DIHYDRO-NAPHTHYRIDINE DERIVATIVES IN TREATMENT OF TUMORS” (NEURODAWN PHARMACEUTICAL CO., LTD., priority 2021, published 2025).
“Also recorded” adds a separate entry of the source.

Tests used:
[1] = system: T98G subcutaneous transplantation tumor; assay: Human brain glioma T98G subcutaneous model in NOD SCID mice (Example 6); type: in vivo, NOD SCID mouse; details: S2 3 mg/kg IV
Description: Human brain glioma T98G cells were cultured in vitro. The cells were cultured in EMEM medium added with 10% fetal calf serum, 100 U/mL penicillin and 100 µg/mL streptomycin, in a 37° C. 5% CO2 incubator. After the number of cells reached the required number, the cells were collected. 0.2 mL (10×10^6) of T98G tumor cells (PBS:Matrigel=1:1) were subcutaneously inoculated into the right back of each mouse. The mice were grouped and administered when the average tumor volume reached approximately 147 mm^3. […]
Tumor diameters were measured with vernier calipers twice a week, and tumors were weighed and photographed after the experiment.
1.5 Data Statistics The tumor volume was calculated as follows: V=0.5a×b^2, where a and b represent the long and short diameters of the tumor respectively.
The tumor inhibitory effect was evaluated by TGI (%) or relative tumor proliferation rate T/C (%).
The tumor inhibitory effect was calculated as TGI (%): TGI %=[1-(average tumor volume at the end of administration in a certain treatment group−average tumor volume at the beginning of administration in the treatment group)/(average tumor volume at the end of administration in the vehicle control group−average tumor volume in the vehicle control group at the beginning of treatment)]×100. […]

[2] = system: T98G cells; assay: Vacuolation induction in T98G cells (Example 1); type: cell-based, human
Description: T98G cells were stably passaged twice. When the cell density reached more than 85%, the cells were digested with 0.05% trypsin-EDTA for 3 minutes, resuspended with the culture medium, and plated in a 12-well plate at a certain density, with each well system being 1 mL. The cells were cultured for 24 hours, and added with the compound solution prepared above to each well according to the grouping, so that the concentrations of the compounds in the culture system were respectively 5 μM, 10 μM, 20 μM, 40 μM, and 60 μM. An equal volume of DMSO was added as a control well.
After 6 hours of drug treatment, the plates were observed under a microscope with a 20× objective lens, and five fields of view were randomly selected for each well to take photos and record. If in the observed field of view, bright vacuoles with clear border appeared in the cell, and at least one of the following conditions was met: 1) a cell contained at least 1 vacuole with a diameter greater than 3 μm; 2) a cell contained 3 or more vacuoles with a diameter within the range of 0.5-3 μm, the cell was considered to be methuosis-positive cells.
Among them, CELL positive: the number of methuosis-positive cells; CELL normal: the number of cells with normal morphology

[3] = system: SK-N-SH; assay: Cell viability assay (Example 2); type: cell-based; details: Homo sapiens, 48 hours
Description: (§1) U87MG, T98G, U251, SK-N-SH, A-172 and HepG2 cells were adherently cultured in MEM+10% FBS+1% P/S medium and passaged at 1:3; CT26.WT cells were adherently cultured in RPMI-1640+10% FBS+1% P/S medium and passaged at 1:3; CHO-K1 was cultured adherently in Ham's F-12K+10% FBS+[…] medium and passaged at 1:3.
(§2) The above various cells were resuscitated and stably passaged twice. When the cell density reached above 85%, the cells were digested with 0.05% trypsin-EDTA for three minutes, resuspended, plated in a 96-well plate at the corresponding density, and cultured for 24 hours. The cells were treated with drugs at final concentrations of the culture system of 0.41 μM, 1.23 μM, 3.7 μM, 11.1 μM, 33.3 μM, and 100 μM. After 48 hours of drug treatment, cell viability was determined using CellCounting-Lite™ 2.0 kit. The plate was added with reagents at 100 µL/well according to the CellCounting-Lite™ 2.0 kit instructions, and shaken for 10 minutes. The luminescence value (LUM) was read on a multi-function plate reader, and the relative viability of the cells was calculated.
(§3) Relative viability of tumor cells V (%)=(LUM-LUMbackground)/(LUMnormal control−LUMbackground)×100%. LUMbackground was the background reading of the complete culture medium well added with the detection reagent. The half inhibitory concentration (IC50) was calculated using GraphPad Prism 8.0.1 statistical software.

[4] = system: U251; assay: Cell viability assay (Example 2); type: cell-based; details: Homo sapiens, U-251; U251, 48 hours
Description: as §1, §2, §3

[5] = system: T98G; assay: Cell viability assay (Example 2); type: cell-based; details: Homo sapiens, 48 hours
Description: as §1, §2, §3

[6] = system: CT26.WT; assay: Cell viability assay (Example 2); type: cell-based; details: Mus musculus, 48 hours
Description: as §1, §2, §3

[7] = system: U87MG; assay: Cell viability assay (Example 2); type: cell-based; details: Homo sapiens, U-87 MG, 48 hours
Description: as §1, §2, §3

[8] = system: A172; assay: Cell viability assay (Example 2); type: cell-based; details: Homo sapiens, A 172; A172, 48 hours
Description: as §1, §2, §3

[9] = system: HepG2; assay: Cell viability assay (Example 2); type: cell-based; details: Homo sapiens; HepG2, 48 hours
Description: as §1, §2, §3

SMILES: CCOC(=O)C1=C(C)Nc2nc3c(c(N)c2C1c1ccccc1Cl)CC(C)(C)CC3 (centres unmarked) [Compound S2]
- Tumor volume growth vs vehicle (FIG. 13A-C) [1]: significantly inhibited tumor volume growth; also recorded: inhibited the growth of T98 glioma
- Tumor weight at end of experiment vs control (FIG. 13D) [1]: significantly lower than that in the control group; also recorded: reduced the volume and weight of solid tumors
- Rank of vacuolation-inducing activity among the derivatives [2]: strongest vacuolation-inducing activity
- Induction of vacuolation in T98 cells ([2]; FIG. 1 and Table 1): can induce vacuolation
- IC50 [3]: 11.4 µM
- IC50 [4]: 14.3 µM
- IC50 [5]: 9.4 µM
- IC50 [6]: 7.1 µM
- IC50 [7]: 11.7 µM
- IC50 [8]: 4.7 µM
- IC50 [9]: 10.1 µM
